A short description of data set [1]: Prediction of in vivo plasma clearance from microsomal stability data (well-stirred liver model) and prediction accuracy. The following applies: rat; for CLp Predicted (SD), predicted plasma clearance: well-stirred liver model, corrected for microsomal and plasma protein binding; for Fold Error CL (ratio predicted/observed) / Fold Underprediction CL: predicted vs observed CLp. It is filed as in vitro ADME. The method, then: (§1) Intrinsic clearance was calculated from in vitro t1/2 using the equation [38]:(2) CLint=ln2/in vitro t1/2 (min)×fmic×ml incubation/mg microsomal protein×mg microsomal protein/g liver weight×g liver/kg body weight where scaling factors of 60 mg of microsomal protein per gram of liver and 40 g of liver tissue per kilogram of body weight were applied.
In vivo clearance in plasma was predicted using the well-stirred liver model:(4) CLp=Q×fp×CLint/Q+fp×CLint where fp is the fraction unbound in plasma and Q is hepatic blood flow with a given value of 55 mL/min/kg for rat.
The individual prediction accuracy was assessed by calculation of fold error (ratio predicted/observed). AFE (Equation (5)) and RMSE (Equation (6)) were used as measures for overall bias and precision. Underprediction was also expressed as fold underprediction, which is the inverse of AFE. (5) AFE=10^1/n∑logpredicted/observed (6) RMSE=1/n∑(predicted−observed)^2 with n, number of predictions.

Data set [2] is described as follows: Lipophilicity (log P). The class given is physicochemical. The method, then: Table 1 Metabolic stability of the xanthine A1AR ligands in rat liver microsomes and predicted plasma clearance (CLp). Experiments were conducted in triplicate. fmic, unbound fraction in microsomes; CLint, intrinsic clearance; SD, standard deviation. | column: Log P
Data set [3] in a line: Microsomal stability assay (substrate depletion) in rat liver microsomes. It is filed as in vitro ADME. To be noted: male, Sprague Dawley; for half-life at 8 µM: pH 7.4, 8 µM substrate, 0.5 mg/mL protein, triplicate, read-out: In vitro t1/2 (SD); for CLint scaled at 8 µM: pH 7.4, scaled from in vitro t1/2 with fmic, 60 mg protein/g liver, 40 g liver/kg, read-out: CLint (SD), intrinsic clearance. The protocol: RLM (Sprague Dawley, male, 20 mg/mL protein concentration) were purchased from Thermo Fisher Scientific/Life Technologies (Darmstadt, Germany). Assay conditions (buffer, microsomal protein concentration, solvent) were evaluated and optimized in a preliminary study. RLM (0.5 mg/mL microsomal protein) and substrate (8 µM CBX, MCBX or CPFPX, 1 mM stock solutions in DMSO) were preincubated for 5 min at 37 °C in HEPES buffer (100 mM, pH 7.4) containing MgCl2 (3.3 mM). Reactions were initiated by addition of preheated NADPH (1.3 mM). Final incubation volume was 1 mL. Aliquots (100 µL) were withdrawn at 0, 2, 5, 10, 15 and 20 min and quenched with an equal volume of methanol/acetonitrile (50:50, v/v, cooled to −20 °C). The samples were mixed on a vortex mixer (1 min, 21 °C) and centrifuged (20,000 rcf, 10 min, 21 °C) to sediment precipitated protein. The supernatants (aliquots of 50 µL) were analyzed on a Knauer smartline HPLC-UV/VIS system (Knauer, Berlin, Germany) equipped with a manual sample injector (Rheodyne type 7125), a 500 µL sample loop and a Kromasil 100-5-C18 (4.6 × 250 mm) analytical column (AkzoNobel, Bohus, Sweden). Chromatography was performed using a mobile phase composition of ACN/H2O/HAc 48:52:0.2 (v/v/v), and with a flow rate of 1 mL/min and a detection wavelength of 275 nm. Experiments were conducted in triplicate.
Substrate depletion was calculated from the area ratios of the analyte peak, using the value at t = 0 min as 100%. Depletion data were fitted to the monoexponential decay model (Equation (1)) to derive in vitro t1/2. (1) C(t)=C0e^−ln2/t1/2t where C0 is the substrate concentration at time t = 0.
as §1

Data set [4] in a line: In vivo pharmacokinetics in rat plasma after i.v. administration. The following applies: for clearance / Vd / half-life: iv, single i.v. dose approx. 0.4 nmol, mean plasma curves, triexponential fit; for clearance: read-out: CLp (plasma clearance, in vivo); for Vd: read-out: Vd (volume of distribution); for half-life: read-out: t1/2,term (terminal half-life); for Parent fraction (authentic radiotracer of total plasma radioactivity): rat plasma, 180 min p.i., radio-TLC. The protocol:
Pharmacokinetic experiments on rats (n = 27) were conducted under isoflurane anesthesia (1.5–2% in oxygen) with continuous monitoring of physiological parameters. Polyethylene catheters (PE 50; filled with heparinized saline) were implanted into the femoral artery for arterial blood sampling and the lateral tail vein for radiotracer application. [^18F]CPFPX, [^18F]MCBX or [^18F]CBX (21 ± 2.5 MBq, 0.39 ± 0.20 nmol) was formulated in physiological saline (1 mL total volume) and administered over 1 min using a syringe pump (model 44, Harvard Apparatus, Holliston, MA, USA). Arterial blood samples (ca. 200 μL) were collected at regular time intervals throughout the 180-min experiment. The total blood sampling volume was kept below 10% of the circulating blood volume of the animal. Plasma was separated by centrifugation (3,000 rcf, 3 min, 21 °C), weighed and measured in a γ-counter (ISOMED 2100, MED Nuklear-Medizintechnik Dresden GmbH, Dresden, Germany) to calculate plasma radioactivity concentration. Fractions of unchanged radiotracer (parent fraction) and radiolabeled metabolites in plasma were assessed by radio-thin layer chromatography (TLC) analysis. Aliquots (45 μL) of plasma were mixed with 3 volumes of methanol/acetonitrile (50:50, v/v, 4 °C), vortexed (1 min, 21 °C) and centrifuged (20,000 rcf, 5 min, 21 C) to sediment precipitated protein. Aliquots (5 μL) of the supernatants were spotted on a TLC plate (SIL G-25, 10 × 20 cm, Macherey-Nagel, Düren, Germany). The TLC plate was developed with ethyl acetate/hexane, 75:25 (v/v), dried and subsequently imaged for 50 min with an electronic autoradiography system (InstantImager, Canberra-Packard, Rüsselsheim, Germany).
PK analysis was performed on decay and metabolite-corrected plasma radioactivity data of 8 ([^18F]CBX, [^18F]CPFPX) or 9 ([^18F]MCBX) individual animals. Data of 2 animals could not be used for PK analysis due to paravenous radiotracer injection. Since interindividual variations in plasma kinetics within the test groups were relatively small, individual plasma data were combined to mean data sets for analysis. Assuming a specific density of 1 g/mL for plasma, radioactivity concentration was calculated and plotted against time. For data visualization, plasma radioactivity concentration was normalized to body weight and amount of injected radioactivity, yielding SUV. PK parameters were derived from the radioactivity concentration-time data via nonlinear regression analysis applying a triexponential model:(7) Cp(t)=A1e^−λ1t+A2e^−λ2t+A3e^−λ3t where Cp is the plasma radioactivity concentration, t is time, A1, A2, and A3 represent the y-intercepts of the distribution/elimination phases of the plasma concentration-time curve and λ1, λ2, and λ3 represent the first-order rate constants of the phases.
Plasma clearance, volume of distribution and terminal half-life were calculated from the model parameters A and λ according to the following equations [44]:(8) CLp=D/∫0∞Cp(t)dt=D/∑i=1nAi/λi (9) Vd=Clp/λ3 (10) t1/2,term=ln 2/λ3 where D is the injected radioactivity and λ3 is the terminal rate constant.

This is an account of results in paper PMC6631687, “Relevance of In Vitro Metabolism Models to PET Radiotracer Development: Prediction of In Vivo Clearance in Rats from Microsomal Stability Data” (Pharmaceuticals, 2019).

Structures are written as SMILES. Where two headings read alike, the source gives them in different places.

In general, logP refers to the decadic logarithm of the partition coefficient of the neutral form, usually between octanol and water. A high value points to higher lipophilicity. In general, clearance refers to a measure of how efficiently the substance is removed, as volume per time. The Vd is the apparent volume that relates the amount in the body to the concentration in plasma or blood.

`CCCn1c(=O)c2[nH]c(C3CCC3)nc2n(CCCF)c1=O` [CBX]: the “CLp Predicted (SD), predicted plasma clearance” value (“CLp Predicted (SD)” below) in data set [1] is listed as 2.72 (0.13) mL/min/kg. Besides, in data set [2], the logP was found to be 2.19. Further, in data set [3], the half-life at 8 µM is 35.1 min and the CLint scaled at 8 µM was found to be 106 mL/min/kg.
Consider `CCCn1c(=O)c2nc(C3CCCC3)[nH]c2n(CCCF)c1=O` [CPFPX, reference compound], for which, in data set [1], the “Fold Error CL (ratio predicted/observed)” value is reported as 0.66 and the “CLp Predicted (SD)” value is listed as 4.70 (0.07) mL/min/kg. In addition, the logP in data set [2] is 2.93. In data set [3], the half-life at 8 µM worked out at 14 min and the CLint scaled at 8 µM turned out to be 295 mL/min/kg.
`CCCn1c(=O)c2[nH]c(C3(C)CCC3)nc2n(CCCF)c1=O` [MCBX]: the “CLp Predicted (SD)” value in data set [1] is given as 7.76 (0.22) mL/min/kg. In data set [2], this compound gave a logP of 2.82. In addition, in data set [3], the half-life at 8 µM was found to be 19.8 min and the CLint scaled at 8 µM stood at 204 mL/min/kg.
Regarding `CCCn1c(=O)c2[nH]c(C3CCC3)nc2n(CCC[18F])c1=O` [[^18F]CBX, 8-cyclobutyl-3-(3-[^18F]fluoropropyl)-1-propylxanthine], in data set [1], the “Fold Error CL (ratio predicted/observed)” value was 0.84 and the “Fold Underprediction CL” value was 1.2. In data set [4] (rat), the clearance was found to be 3.22 mL/min/kg, the Vd stood at 0.356 L/kg and the half-life is 76.5 min. Besides, the “Parent fraction (authentic radiotracer of total plasma radioactivity)” value (from here on “Parent fraction”) in data set [4] is given as around 25%. In data set [4] (rat, second and third phase of the curve (10-180 min p.i.)), the “Plasma level relative to [^18F]CPFPX” value is on record as “approximately twice as high”.
Take `CCCn1c(=O)c2[nH]c(C3CCCC3)nc2n(CCC[18F])c1=O` [[^18F]CPFPX, 8-cyclopentyl-3-(3-[^18F]fluoropropyl)-1-propylxanthine, reference compound]: in data set [1], the “Fold Error CL (ratio predicted/observed)” value is reported as 0.66 and the “Fold Underprediction CL” value is recorded as 1.5. The half-life in data set [4] (0.39 nmol, rat) is around 50 min. Also, in data set [4] (rat), the clearance was found to be 7.1 mL/min/kg, the Vd came to 0.523 L/kg and the half-life was found to be 51 min. For the same compound, the “Parent fraction” value in data set [4] is on record as “approximately 7%”.
Take `CCCn1c(=O)c2[nH]c(C3(C)CCC3)nc2n(CCC[18F])c1=O` [[^18F]MCBX, 3-(3-[^18F]fluoropropyl)-8-(1-methylcyclobutyl)-1-propylxanthine]: in data set [1], the “Fold Error CL (ratio predicted/observed)” value was 0.85 and the “Fold Underprediction CL” value was 1.2. Also, the half-life in data set [4] (0.39 nmol, rat) is around 50 min. Besides, in data set [4] (rat), the clearance came to 9.1 mL/min/kg, the Vd was determined as 0.715 L/kg and the half-life came to 54.5 min. For the same compound, the “Parent fraction” value in data set [4] was around 13%.
